This test addresses recombinant human CCR5 receptor (Homo sapiens, UniProt P51681). The experiment in a line: MIP-1α radioligand binding assay (scintillation proximity), CHO cell membranes. To be noted: displacement of 0.1 nM iodinated MIP-1α; negative log10 of IC50; average if tested more than once. How it is done: The ability of compounds to inhibit the binding of MIP-1α was assessed by an in vitro radioligand binding assay. Membranes were prepared from Chinese hamster ovary cells which expressed the recombinant human CCR5 receptor. These membranes were incubated with 0.1 nM iodinated MIP-1α, scintillation proximity beads and various concentrations of the compounds of the invention in 96-well plates. The amount of iodinated MIP-1α bound to the receptor was determined by scintillation counting. Competition curves were obtained for compounds and the concentration of compound which displaced 50% of bound iodinated MIP-1α was calculated (IC50).
In Table II the results are presented as Pic50 values. A Pic50 value is the negative log (to base 10) of the IC50 result, so an IC50 of 1 μM (that is 1×10^−6M) gives a Pic50 of 6. If a compound was tested more than once then the data below is an average of the probative tests results.
In general terms: Scintillation proximity formats need no separation of bound from free tracer.

One compound from US20060052413A1, “Novel piperidine derivatives as modulators of chemokine receptor ccr5” (priority 2002, published 2006) can be followed below.

Sequence of recombinant human CCR5 receptor (P51681 whole entry): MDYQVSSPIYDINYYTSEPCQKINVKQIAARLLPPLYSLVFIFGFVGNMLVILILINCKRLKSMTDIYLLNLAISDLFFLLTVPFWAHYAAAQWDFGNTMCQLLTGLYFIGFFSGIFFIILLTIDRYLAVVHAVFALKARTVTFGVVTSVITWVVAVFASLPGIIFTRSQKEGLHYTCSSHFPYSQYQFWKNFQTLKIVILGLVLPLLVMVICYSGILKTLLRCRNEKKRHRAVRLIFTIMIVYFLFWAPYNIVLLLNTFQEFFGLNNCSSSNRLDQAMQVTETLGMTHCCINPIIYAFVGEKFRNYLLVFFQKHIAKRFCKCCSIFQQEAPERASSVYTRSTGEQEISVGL

For the compound `CCS(=O)(=O)N1CCN(C(CCN2CCC(CCCc3ccccc3)CC2)c2ccccc2)CC1` (stereo not shown) [Compound 3], the IC50 – broadly, the point on the concentration scale where inhibition reaches its midpoint – is 0.0977 µM.
